Data reported in patent US9951028B2, “Agricultural chemicals” (REDAG CROP PROTECTION LTD, priority 2013, dated 2018).

How the values were obtained:
Format in all cases: in vivo
[1] = tested on: common chickweed, Stellaria media; assay: Herbicidal efficacy screen, potter tower spray, necrosis assessed; conditions: 200 g/ha
Procedure: (§1) Compounds 22, 23 and 24 were screened for herbicidal efficacy against target plants: garden cress, Lepidium sativum, common chickweed, Stellaria media, and white mustard […] alba Plants were obtained as seeds and were grown to the 2-4 true leaf stage. Plants were grown under laboratory conditions, individually in seed trays. Each plant (in an approximately 3 cm diameter plug) was then detached from the tray for spraying. The compounds were screened at a range of five concentrations, diluted in acetone and TweenTM. A carrier only control was also conducted. Treatments were applied directly onto the plants, using a potter tower, at a specified application rate. One plant of each species was sprayed using a potter tower. The 3 different types of plants were placed on a 10 cm diameter platform directly beneath the potter sprayer and sprayed simultaneously. The growth of the plants and any Phytotoxicity effects were then assessed at intervals over 21 days, according to EPPO guideline PP1/135. Five replicas were performed for each treatment, for each species. In the tables below C represents a percentage increase in necrosis relative to the control of 0.1-50; B represents a percentage inhibition of 50-80; and A represents a percentage inhibition of 80-100.

[2] = tested on: white mustard Sinapsis alba; assay: as above
Procedure: as §1

[3] = tested on: Abutilon theophrasti (China Jute); assay: Herbicidal efficacy screen, corrected necrosis
Procedure: (§2) Plants were obtained as seeds and were grown to the 2-4 true leaf stage. Plants were grown under laboratory conditions, individually in seed trays. Each plant (in an approximately 3 cm diameter plug) was then detached from the tray for spraying. The compounds were screened at a range of five concentrations, diluted in acetone and Tween™. A carrier only control was also conducted. Treatments were applied directly onto the plants, using a potter tower, at a specified application rate. One plant of each species was sprayed using a potter tower. The 3 different types of plants were placed on a 10 cm diameter platform directly beneath the potter sprayer and sprayed simultaneously. The growth of the plants and any Phytotoxicity effects were then assessed at intervals over 21 days, according to EPPO guideline PP1/135. In the tables below C represents a percentage increase in necrosis relative to the control of 0.1-50; B represents a percentage inhibition of 50-80; and A represents a percentage inhibition of 80-100. Certain compounds of the invention were screened for herbicidal efficacy against target plants: Amaranthus retroflexus (redroot pigweed), Abutilon theophrasti (China Jute): Capsella bursa-pastoris, (shepherd's-purse) Echinochloa crus-galli, Hordeum vulgare (Barley),

[4] = tested on: Amaranthus retroflexus (redroot pigweed); assay: Herbicidal efficacy screen, corrected necrosis
Procedure: as §2

[5] = tested on: Capsella bursa-pastoris, (shepherd's-purse); assay: Herbicidal efficacy screen, corrected necrosis
Procedure: as §2

[6] = 12.5 g/ha, day 1 post application
[7] = 12.5 g/ha, day 7 post application
[8] = 25 g/ha, day 1 post application
[9] = 25 g/ha, day 7 post application
[10] = 50 g/ha, day 1 post application
[11] = 50 g/ha, day 7 post application
[12] = 100 g/ha, day 1 post application
[13] = 100 g/ha, day 7 post application
[14] = 6.25 g/ha, day 1 post application
[15] = 6.25 g/ha, day 7 post application

`CC(C)N(C)S(=O)(=O)/N=C/c1cc(-n2c(=O)cc(C(F)(F)F)n(C)c2=O)c(F)cc1Cl` [Compound 22, 1-[4-Chloro-2-fluoro-5-[(E)-(isopropyl(methyl)sulfamoyl)iminomethyl]phenyl]-3-methyl-2,6-dioxo-4-(trifluoromethyl)pyrimidine] was tested, and the Average of necrosis ([1]; day 5 post application) was “A (A represents a percentage inhibition of 80-100)”, the Average of necrosis ([1]; day 7 post application) was “A (A represents a percentage inhibition of 80-100)” and the Average of necrosis ([1]; day 10 post application) was “A (A represents a percentage inhibition of 80-100)”. The Average of necrosis [2, 6] was “C (C represents a percentage increase in necrosis relative to the control of 0.1-50)”, the Average of necrosis ([2]; 12.5 g/ha, day 2 post application) was “C (C represents a percentage increase in necrosis relative to the control of 0.1-50)” and the Average of necrosis ([2]; 12.5 g/ha, day 3 post application) was “C (C represents a percentage increase in necrosis relative to the control of 0.1-50)”. For the same molecule, the Average of necrosis ([2]; 12.5 g/ha, day 4 post application) was “C (C represents a percentage increase in necrosis relative to the control of 0.1-50)”, the Average of necrosis ([2]; 12.5 g/ha, day 5 post application) was “C (C represents a percentage increase in necrosis relative to the control of 0.1-50)” and the Average of necrosis [2, 7] was “C (C represents a percentage increase in necrosis relative to the control of 0.1-50)”. The Average of necrosis ([2]; 12.5 g/ha, day 10 post application) was “B (B represents a percentage inhibition of 50-80)”, the Average of necrosis [2, 8] was “C (C represents a percentage increase in necrosis relative to the control of 0.1-50)” and the Average of necrosis ([2]; 25 g/ha, day 2 post application) was “C (C represents a percentage increase in necrosis relative to the control of 0.1-50)”. The Average of necrosis ([2]; 25 g/ha, day 3 post application) was “C (C represents a percentage increase in necrosis relative to the control of 0.1-50)”, the Average of necrosis ([2]; 25 g/ha, day 4 post application) was “C (C represents a percentage increase in necrosis relative to the control of 0.1-50)” and the Average of necrosis ([2]; 25 g/ha, day 5 post application) was “C (C represents a percentage increase in necrosis relative to the control of 0.1-50)”. The Average of necrosis [2, 9] was “C (C represents a percentage increase in necrosis relative to the control of 0.1-50)”, the Average of necrosis ([2]; 25 g/ha, day 10 post application) was “C (C represents a percentage increase in necrosis relative to the control of 0.1-50)” and the Average of necrosis [2, 10] was “C (C represents a percentage increase in necrosis relative to the control of 0.1-50)”. For the same molecule, the Average of necrosis ([2]; 50 g/ha, day 2 post application) was “C (C represents a percentage increase in necrosis relative to the control of 0.1-50)”, the Average of necrosis ([2]; 50 g/ha, day 3 post application) was “C (C represents a percentage increase in necrosis relative to the control of 0.1-50)” and the Average of necrosis ([2]; 50 g/ha, day 4 post application) was “C (C represents a percentage increase in necrosis relative to the control of 0.1-50)”. The Average of necrosis ([2]; 50 g/ha, day 5 post application) was “B (B represents a percentage inhibition of 50-80)”, the Average of necrosis [2, 11] was “B (B represents a percentage inhibition of 50-80)” and the Average of necrosis ([2]; 50 g/ha, day 10 post application) was “B (B represents a percentage inhibition of 50-80)”. The Average of necrosis [2, 12] was “C (C represents a percentage increase in necrosis relative to the control of 0.1-50)”, the Average of necrosis ([2]; 100 g/ha, day 2 post application) was “C (C represents a percentage increase in necrosis relative to the control of 0.1-50)” and the Average of necrosis ([2]; 100 g/ha, day 3 post application) was “C (C represents a percentage increase in necrosis relative to the control of 0.1-50)”. The Average of necrosis ([2]; 100 g/ha, day 4 post application) was “C (C represents a percentage increase in necrosis relative to the control of 0.1-50)”, the Average of necrosis ([2]; 100 g/ha, day 5 post application) was “C (C represents a percentage increase in necrosis relative to the control of 0.1-50)” and the Average of necrosis [2, 13] was “C (C represents a percentage increase in necrosis relative to the control of 0.1-50)”. For the same molecule, the Average of necrosis ([2]; 100 g/ha, day 10 post application) was “B (B represents a percentage inhibition of 50-80)”, the Average of necrosis ([2]; 200 g/ha, day 1 post application) was “C (C represents a percentage increase in necrosis relative to the control of 0.1-50)” and the Average of necrosis ([2]; 200 g/ha, day 2 post application) was “C (C represents a percentage increase in necrosis relative to the control of 0.1-50)”. The Average of necrosis ([2]; 200 g/ha, day 3 post application) was “C (C represents a percentage increase in necrosis relative to the control of 0.1-50)”, the Average of necrosis ([2]; 200 g/ha, day 4 post application) was “C (C represents a percentage increase in necrosis relative to the control of 0.1-50)” and the Average of necrosis ([2]; 200 g/ha, day 5 post application) was “C (C represents a percentage increase in necrosis relative to the control of 0.1-50)”. For the same molecule, the Average of necrosis ([2]; 200 g/ha, day 7 post application) was “C (C represents a percentage increase in necrosis relative to the control of 0.1-50)”, the Average of necrosis ([2]; 200 g/ha, day 10 post application) was “B (B represents a percentage inhibition of 50-80)” and the “Average of corrected necrosis” value [3, 14] was “C (C represents a percentage increase in necrosis relative to the control of 0.1-50)”. For the same molecule, the “Average of corrected necrosis” value [3, 15] was “A (A represents a percentage inhibition of 80-100)”, the “Average of corrected necrosis” value [3, 6] was “C (C represents a percentage increase in necrosis relative to the control of 0.1-50)” and the “Average of corrected necrosis” value [3, 7] was “A (A represents a percentage inhibition of 80-100)”. The “Average of corrected necrosis” value [3, 8] was “C (C represents a percentage increase in necrosis relative to the control of 0.1-50)”, the “Average of corrected necrosis” value [3, 9] was “A (A represents a percentage inhibition of 80-100)” and the “Average of corrected necrosis” value [3, 10] was “C (C represents a percentage increase in necrosis relative to the control of 0.1-50)”. For the same molecule, the “Average of corrected necrosis” value [3, 11] was “A (A represents a percentage inhibition of 80-100)”, the “Average of corrected necrosis” value [3, 12] was “C (C represents a percentage increase in necrosis relative to the control of 0.1-50)” and the “Average of corrected necrosis” value [3, 13] was “A (A represents a percentage inhibition of 80-100)”. The “Average of corrected necrosis” value [4, 14] was “C (C represents a percentage increase in necrosis relative to the control of 0.1-50)”, the “Average of corrected necrosis” value [4, 15] was “A (A represents a percentage inhibition of 80-100)” and the “Average of corrected necrosis” value [4, 6] was “C (C represents a percentage increase in necrosis relative to the control of 0.1-50)”. The “Average of corrected necrosis” value [4, 7] was “A (A represents a percentage inhibition of 80-100)”, the “Average of corrected necrosis” value [4, 8] was “C (C represents a percentage increase in necrosis relative to the control of 0.1-50)” and the “Average of corrected necrosis” value [4, 9] was “A (A represents a percentage inhibition of 80-100)”. The “Average of corrected necrosis” value [4, 10] was “C (C represents a percentage increase in necrosis relative to the control of 0.1-50)”, the “Average of corrected necrosis” value [4, 11] was “A (A represents a percentage inhibition of 80-100)” and the “Average of corrected necrosis” value [4, 12] was “C (C represents a percentage increase in necrosis relative to the control of 0.1-50)”. For the same molecule, the “Average of corrected necrosis” value [4, 13] was “A (A represents a percentage inhibition of 80-100)”, the “Average of corrected necrosis” value [5, 14] was 0% and the “Average of corrected necrosis” value [5, 15] was “A (A represents a percentage inhibition of 80-100)”. For the same molecule, the “Average of corrected necrosis” value [5, 6] was “C (C represents a percentage increase in necrosis relative to the control of 0.1-50)”, the “Average of corrected necrosis” value [5, 7] was “A (A represents a percentage inhibition of 80-100)” and the “Average of corrected necrosis” value [5, 8] was “C (C represents a percentage increase in necrosis relative to the control of 0.1-50)”. The “Average of corrected necrosis” value [5, 9] was “A (A represents a percentage inhibition of 80-100)”, the “Average of corrected necrosis” value [5, 10] was 0% and the “Average of corrected necrosis” value [5, 11] was “A (A represents a percentage inhibition of 80-100)”. For the same molecule, the “Average of corrected necrosis” value [5, 12] was “C (C represents a percentage increase in necrosis relative to the control of 0.1-50)” and the “Average of corrected necrosis” value [5, 13] was “A (A represents a percentage inhibition of 80-100)”.
